Read-outs that look alike come from different tables or passages of the source.
Legend:
[1] = molecular target: STIM1 and Orai1 in HEK293 cells (Homo sapiens, UniProt Q96D31); conditions: HEK293 cells coexpressing STIM1 and Orai1; cited from earlier work
[2] = molecular target: T1, Orai1/STIM1 ICRAC channel (Homo sapiens, UniProt Q96D31); assay: Patch clamp (PatchXpress) of calcium currents in cells stably transfected with STIM1 and Orai1; type: cell-based
T1 construct: expressed in transfected cells
T1 sequence (Q96D31 whole entry): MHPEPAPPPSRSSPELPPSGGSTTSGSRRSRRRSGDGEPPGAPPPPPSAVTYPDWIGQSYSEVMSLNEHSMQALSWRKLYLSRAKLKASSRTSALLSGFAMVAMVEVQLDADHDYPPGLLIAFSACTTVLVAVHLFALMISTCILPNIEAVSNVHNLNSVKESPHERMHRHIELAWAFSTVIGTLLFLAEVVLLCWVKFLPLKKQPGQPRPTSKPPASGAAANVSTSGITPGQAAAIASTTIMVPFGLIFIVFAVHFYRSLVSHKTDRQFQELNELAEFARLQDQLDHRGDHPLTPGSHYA
Excerpt: Isolated, stably transfected cells were monitored with patch clamp analysis (PatchExpress) to detect calcium currents with overexpressed, stably transfected STIM1 and Orai1 nucleic acids.

[3] = test system: HEK[STIM1] cells (STIM1 overexpression)
Protocol: (§1) To test whether the […] entry pathway constitutively activated by STIM1 overexpression is pharmacologically similar to endogenous SOCE, HEK[STIM1] cells are pre-incubated with increasing doses of 2-APB and STIM1-induced Ca^2+ entry is measured.

[4] = test system: endogenous SOCE in HEK-Zeo control cells; conditions: read-out: IC50 of inhibition of calcium entry, thapsigargin-mediated store depletion, readdition of external calcium
Protocol: as §1

[5] = molecular target: T2, CRAC current in olf186-F+Stim transfectants (Drosophila melanogaster, UniProt Q9U6B8); assay: Whole-cell patch-clamp of Ca2+ current in olf186-F+Stim transfected S2 cells; type: cell-based
T2 construct: A cDNA clone, pAc5.1/olf186-F, encoding full-length Drosophila olf186-F-RB, was generated for transfection into S2 cells; expressed in transfected cells; host or cells: Drosophila S2 cells (transient, Nucleofector)
T2 sequence (Q9U6B8 1-351): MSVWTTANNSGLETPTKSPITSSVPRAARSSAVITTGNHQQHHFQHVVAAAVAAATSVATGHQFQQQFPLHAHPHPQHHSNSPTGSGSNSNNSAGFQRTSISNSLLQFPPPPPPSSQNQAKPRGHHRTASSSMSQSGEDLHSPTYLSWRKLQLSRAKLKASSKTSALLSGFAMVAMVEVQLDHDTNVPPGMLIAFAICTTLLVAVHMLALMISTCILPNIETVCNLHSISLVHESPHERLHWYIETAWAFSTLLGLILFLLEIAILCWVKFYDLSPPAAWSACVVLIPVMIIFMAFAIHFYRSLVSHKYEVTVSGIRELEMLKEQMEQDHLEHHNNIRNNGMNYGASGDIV
Protocol: Whole-Cell Recording. Patch-clamp experiments were performed at room temperature in the standard whole-cell recording configuration, using a holding potential of −10 mV. […] To calculate current densities, peak current amplitudes were divided by membrane capacitance for each cell.

[6] = test system: Jurkat cells; conditions: cited from earlier work
[7] = test system: colon cancer cells; conditions: cited from earlier work
[8] = molecular target: T3, STIM1/Orai1 CRAC channel (Homo sapiens, UniProt Q96D31); assay: FLIPR assay of Orai1/STIM1-dependent Ca2+ entry in stably transfected STIM1/Orai1 cells; type: cell-based
T3 construct: expressed in transfected cells
T3 sequence (Q96D31 whole entry): as the sequence (Q96D31 whole entry) above
Protocol: Cells are plated at 30K cells/50 uL media/well in PDL-coated 384-well plate (Greiner Cell Coat; VWR cat#82051-358) 24 hours before experiment. 20 μM Fluo-4-AM (Invitrogen cat#F-14201) are prepared, resuspended with 10 μl F-127, 20% pluronic solution in DMSO (Invitrogen cat#P3000MP), and added to 2.3 mL culture medium. Cells are loaded with dye by adding 5 μl of the 20 μM Fluo-4-AM solution to each well of the 384-well plate that already contained 50 μL of culture medium. The plates are kept in dark, RT, for approximately 1 hour. HBSS/1% HEPES/0.2 g/L MgCl2 was prepared and cells transferred to a plate washer to remove dye-loading solution from cells. The cells are washed with HBSS/1% HEPES/0.2 g/L MgCl2, being careful not to dislodge the cells. The final volume of buffer left on the cells should equal 40 μL. The cell plate is transferred to FLIPR monitoring instrument (Molecular Devices, Sunnyvale, Calif.), and 10 μL compound is added and incubated for 30 minutes. Data points (1/sec) are acquired prior to the addition of CaCl2 to establish basal readings. 5 μL 11 mM CaCl2 (1.0 mM CaCl2 final) is added, and the fluorescence read every second for 1 minute, then every 10 seconds for 14 minutes. […]
RBL-2H3 cells plated in 384-well plates are loaded for 45 min with FLUO-4-AM (2 μM final concentration) in a Hanks-buffered salt solution. […] Fifteen minutes after addition of Tg, store-operated calcium entry is initiated by adding external Ca^2+ to a final concentration of 1.8 mM and the cells monitored for a further 10-15 minutes. Calcium levels are monitored throughout the assay using a FLIPR^384 (Molecular Devices fluorimetric imaging plate reader for high throughput screening).
The kinetic data from the FLIPR^384 are analyzed and stored in a relational database (ActivityBase; IDBS). Ten quantitative parameters are calculated that define various aspects of the store-operated calcium entry response. […]

[9] = test system: Drosophila S2 cells; assay: Single-cell ratiometric fura-2 [Ca2+]i imaging of S2 cells; type: cell-based; conditions: control cells, 1 μM ionomycin in zero-Ca2+ solution, average
Protocol: RNAi in Drosophila S2 Cells. RNAi experiments were adapted from the protocols described by Worby et al. Drosophila S2 cells (0.5×10^6) were seeded in T-25 flasks in 2 ml of complete S2 medium. The next day, medium was removed and replaced with 2 ml of serum-free S2 medium. Twenty micrograms of dsRNA was added, and cells were incubated at room temperature for 45 min with gentle rocking. Four milliliters of S2 medium was added, and cells were incubated for 5 days at 24° C. Cells then were harvested and either plated for single-cell Ca^2+ imaging and patch-clamp experiments or processed for RT-PCR analysis.
Single-Cell [Ca^2+]i imaging. Ratiometric [Ca^2+]i Imaging was performed as described in ref. 3, using solution recipes described in Table 3. Transfected cells were recognized by coexpressed enhanced GFP (EGFP), using filters to avoid contamination of Fura-2 fluorescence by bleedthrough of GFP fluorescence. Data were analyzed with METAFLUOR software (Universal Imaging, Downington, Pa.) and ORIGINPRO 7.5 software (OriginLab, Northampton, Mass.) and are expressed as means ±SEM.
Effects of olf186-F Knockdown and Overexpression on Ca^2+ Influx and CRAC Currents in Single Cells. […]

Sequence of STIM1 and Orai1 in HEK293 cells (Q96D31 whole entry): as the sequence (Q96D31 whole entry) above

Compound: NCCOB(c1ccccc1)c1ccccc1 [2-APB, 2-aminoethoxydiphenyl borate]
- store-operated Ca2+ entry [1]: completely blocked
- effect on CRAC channel currents (FIG. 8) [2]: potentiation
- calcium entry at lower concentrations ([3]; absence of store depletion, lower concentrations): potentiated
- IC50 ([3]; read-out: IC50 of inhibition of calcium entry, thapsigargin-mediated store depletion, readdition of external calcium): 10.5 µM
- IC50 ([3]; read-out: IC50 of inhibition of constitutive calcium entry, absence of store depletion): 10.8 µM
- IC50 [4]: 11.8 µM
- effect on enhanced Ca2+ currents ([5]; 5 μM): potentiation of current before blocking
- effect on enhanced Ca2+ currents ([5]; 20 μM): blocked

Compound: Cc1nnsc1C(=O)Nc1ccc(-n2nc(C(F)(F)F)cc2C(F)(F)F)cc1 [BTP-2]
- SOCE [6]: inhibits
- proliferation [6]: inhibits
- SOCE [7]: inhibits
- proliferation [7]: inhibits

Compound: O=C(Nc1scc(-c2ccc(Br)cc2)c1C(=O)O)c1cccc(F)c1 [Cmpd B]
- CRAC-channel mediated Ca2+ entry [8]: inhibit
- IC50 ([8]; read-out: IC50 (inhibition of calcium inflow)): 1900 nM

Compound: [Gd+3] [Gd^3+]
- effect on enhanced Ca2+ currents ([5]; 50 nM): blocked

Compound: O=C(Nc1scc(-c2ccc(Br)cc2)c1C(=O)O)c1ccc(F)cc1 [compound A]
- CRAC-channel mediated Ca2+ entry [8]: inhibit

Compound: C[C@H](CCC(=O)O)C[C@H](C)C[C@H](C)C(=O)/C=C(\O)[C@H](C)C[C@H](C)C/C=C/[C@@H](C)[C@@H](O)[C@@H](C)[C@@H](O)C[C@@H]1CC[C@@](C)([C@H]2CC[C@@](C)([C@@H](C)O)O2)O1 [ionomycin]
- peak of Ca2+ release transient [9]: 200 nM
